From ChEMBL document CHEMBL4229423 (Bioorg Med Chem, 2018)

Experiments:
Platelet [1] = assay: Antiplatelet activity in rabbit platelet rich plasma assessed as inhibition of ADP-induced platelet aggregation at 0.1 mM preincubated for 5 mins followed by ADP addition measured up to 5 mins; assay type: functional; conditions: Oryctolagus cuniculus
Mus musculus [2] = assay: Antihyperglycemic activity in fasting ICR mouse assessed as decrease in plasma glucose AUC (0 to 120 mins) at 20 mg/kg, po administered 30 mins prior to glucose challenge measured after 120 mins by OGTT relative to control; assay type: functional; parameters: scale not given: the % may be the effect or the level left
Mus musculus [3] = assay: Antidiabetic activity in ICR mouse assessed as increase in urinary glucose excretion by measuring urine glucose levels at 20 mg/kg, po administered 30 mins prior to glucose challenge measured after 15 mins; assay type: functional
Platelet [4] = assay: Antiplatelet activity in rabbit platelet rich plasma assessed as inhibition of ADP-induced platelet aggregation at 0.1 mM preincubated for 5 mins followed by ADP addition measured up to 5 mins in presence of NO scavenger carboxy-PTIO; assay type: functional; conditions: Oryctolagus cuniculus
Mus musculus [5] = assay: Antidiabetic activity in ICR mouse assessed as increase in urinary glucose excretion by measuring urine glucose levels at 20 mg/kg, po administered 30 mins prior to glucose challenge measured after 120 mins; assay type: functional
Mus musculus [6] = assay: Antidiabetic activity in ICR mouse assessed as increase in urinary glucose excretion by measuring urine glucose levels at 20 mg/kg, po administered 30 mins prior to glucose challenge measured after 30 mins; assay type: functional
Mus musculus [7] = assay: Antidiabetic activity in ICR mouse assessed as increase in urinary glucose excretion by measuring urine glucose levels at 20 mg/kg, po administered 30 mins prior to glucose challenge measured after 60 mins; assay type: functional
[8] = molecular target: T1, Sodium/glucose cotransporter 2 (Homo sapiens, UniProt P31639); assay: Inhibition of SGLT2 (unknown origin)
T1 sequence (P31639 whole entry): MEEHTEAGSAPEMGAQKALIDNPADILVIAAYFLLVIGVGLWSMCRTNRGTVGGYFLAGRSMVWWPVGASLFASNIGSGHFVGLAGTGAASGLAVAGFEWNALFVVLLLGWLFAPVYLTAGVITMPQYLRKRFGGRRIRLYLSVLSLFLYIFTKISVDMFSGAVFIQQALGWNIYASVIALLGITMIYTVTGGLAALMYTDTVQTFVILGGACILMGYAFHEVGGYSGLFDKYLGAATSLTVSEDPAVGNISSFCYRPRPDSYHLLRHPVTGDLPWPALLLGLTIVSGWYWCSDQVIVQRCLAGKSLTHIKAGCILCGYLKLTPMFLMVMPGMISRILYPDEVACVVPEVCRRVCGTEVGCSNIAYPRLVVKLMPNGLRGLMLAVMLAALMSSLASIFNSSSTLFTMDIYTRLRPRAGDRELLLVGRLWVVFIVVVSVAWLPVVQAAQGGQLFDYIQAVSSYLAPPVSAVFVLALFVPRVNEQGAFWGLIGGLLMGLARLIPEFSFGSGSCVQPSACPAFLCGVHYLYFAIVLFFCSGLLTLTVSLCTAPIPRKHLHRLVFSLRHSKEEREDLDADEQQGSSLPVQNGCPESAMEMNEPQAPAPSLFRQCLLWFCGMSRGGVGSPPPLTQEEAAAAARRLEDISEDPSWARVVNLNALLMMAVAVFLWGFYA

IC50 [8] [nM] | Structure (SMILES) | inhibition at 100 µM (Platelet [1]) [%] | other results
– | O=[N+]([O-])OCCOc1ccc(Cc2cc([C@@H]3O[C@H](CO)[C@@H](O)[C@H](O)[C@H]3O)ccc2Cl)cc1 | 11.6 | –
– | O=[N+]([O-])OCCCOc1ccc(Cc2cc([C@@H]3O[C@H](CO)[C@@H](O)[C@H](O)[C@H]3O)ccc2Cl)cc1 | 14.4 | Activity (Mus musculus [2]): 26.3%; Activity (Mus musculus [3]): 500 mg/dL; inhibition at 100 µM (Platelet [4]): 3.64%; Activity (Mus musculus [5]): 500 mg/dL; Activity (Mus musculus [6]): 2000 mg/dL; Activity (Mus musculus [7]): 1000 mg/dL
– | O=[N+]([O-])OCCCCOc1ccc(Cc2cc([C@@H]3O[C@H](CO)[C@@H](O)[C@H](O)[C@H]3O)ccc2Cl)cc1 | 14.1 | –
8.4 | OC[C@H]1O[C@@H](c2ccc(F)c(Cc3cc4ccccc4s3)c2)[C@H](O)[C@@H](O)[C@@H]1O [IPRAGLIFLOZIN] | – | –
2.3 | CCOc1ccc(Cc2cc([C@@H]3S[C@H](CO)[C@@H](O)[C@H](O)[C@H]3O)c(OC)cc2C)cc1 [LUSEOGLIFLOZIN] | – | –
4 | CCc1ccc(Cc2ccc3c(c2)[C@]2(OC3)O[C@H](CO)[C@@H](O)[C@H](O)[C@H]2O)cc1 [TOFOGLIFLOZIN ANHYDROUS] | – | –
